# Measured values reported in patent publication US11439713B2, “Method for creating a renal injury model to screen molecules for the treatment of renal injury” (BAYER AKTIENGESELLSCHAFT, priority 2017, dated 2022).
# “Also recorded” adds a separate entry of the source.
# B1: Sema3a: recombinant mouse Semaphorin-3A protein (R&D System), non-hypertensive injury inducer (protein, UniProt O08665 21-772, looked up)
# Semaphorin-3A: NYANGKNNVPRLKLSYKEMLESNNVITFNGLANSSSYHTFLLDEERSRLYVGAKDHIFSFNLVNIKDFQKIVWPVSYTRRDECKWAGKDILKECANFIKVLEAYNQTHLYACGTGAFHPICTYIEVGHHPEDNIFKLQDSHFENGRGKSPYDPKLLTASLLIDGELYSGTAADFMGRDFAIFRTLGHHHPIRTEQHDSRWLNDPRFISAHLIPESDNPEDDKVYFFFRENAIDGEHSGKATHARIGQICKNDFGGHRSLVNKWTTFLKARLICSVPGPNGIDTHFDELQDVFLMNSKDPKNPIVYGVFTTSSNIFKGSAVCMYSMSDVRRVFLGPYAHRDGPNYQWVPYQGRVPYPRPGTCPSKTFGGFDSTKDLPDDVITFARSHPAMYNPVFPINNRPIMIKTDVNYQFTQIVVDRVDAEDGQYDVMFIGTDVGTVLKVVSVPKETWHDLEEILLEEMTVFREPTTISAMELSTKQQQLYIGSTAGVAQLPLHRCDIYGKACAECCLARDPYCAWDGSSCSRYFPTAKRRTRRQDIRNGDPLTHCSDLQHHDNHHGPSLEERIIYGVENSSTFLECSPKSQRALVYWQFQRRNEDRKEEIRMGDHIIRTEQGLLLRSLQKKDSGNYLCHAVEHGFMQTLLKVTLEVIDTEHLEELLHKDDDGDGSKIKEMSSSMTPSQKVWYRDFMQLINHPNLNTMDEFCEQVWKRDRKQRRQRPGHSQGSSNKWKHMQESKKGRNRRTHEFERAPRSV
# Columns and labels:
# C57Bl/6 mice [1] = assay: AGISHA model with AngII as injury inducer (ACR in urine); assay type: in vivo
# From the text: Five groups with 10-12 mice per group (C57Bl/6, Charles River Laboratories, 6-7 weeks old) were set for one experiment. After delivery, animals remained in a temperature- and light-controlled room with standardized mouse chow and water ad libitum for a one week acclimatization period, following guidelines of local governmental institutions (LANUV Germany). The groups were divided as follows (see FIG. 1): • 1. Control group without AngII bolus injection, but with control saline and additional (oral) administration of drug vehicle (10% ethanol, 40% solutol, 50% water or saline). • 2. AngII group, treated with AngII in normal saline, and drug vehicle. AngII administration occurred in two bolus injections (i.v.+s.c.) of 10 μg (5 μg i.v.+5 μg s.c.), 16 μg (8 μg i.v.+8 μg s.c.) and 20 μg (10 μg i.v.+10 μg s.c.) per mouse, where the first bolus was injected intravenously and the second bolus subcutaneously. The drug vehicle was administered orally.
# 3. Candidate groups 3 and 4: AngII injection and additional treatment with the investigated drug/drugs. For substance testing, drugs or appropriated vehicles were administered orally, via i.v., s.c., or i.p. Administration occurred prior to or after AngII-injection. For example, investigated drug/drugs were given orally 30 minutes before the induction of the injury. • 4. Group 5 is the positive control group Animals were injected with AngII and treated orally with Losartan 30 mg/kg. Losartan is an AngII receptor blocker AT1 (Pieter B M et al, Pharma. Rev., 1993, Kang P M et al, Progress in Cardiology, 1994).
# After AngII injection animals were placed in metabolic cages (Technoplast, Italy) for urine collection for up to 4 hours. At the end of the experiment the urine was analyzed to quantify the ACR. More specifically, the collected urine was analyzed using an automatic analyzer for urinary albumin as well as urinary creatinine (Coban® Integra 400, Roche, Basel, SUI) or using the Mouse albumin ELISA kit (ABCAM, Cambridge, UK). […] The AGISHA model was performed in 3 identical cycles with a one-week break for recovery.
# Negative and positive control experiment. To confirm the findings shown in FIG. 2-4, the mode of action in AGISHA was investigated. In the following experiment, three of the animal groups were pre-treated with three different drugs by oral application 30 minutes before administration of injury inducer (see FIG. 5). • 1) Enalapril 10 mg/kg, an angiotensin-converting enzyme (ACE) inhibitor, is standard of care for high blood pressure. It was used as positive modulator control 1 of the renin-angiotensin system (RAS) in the AGISHA model. • 2) Losartan potassium, 30 mg/kg, angiotensin II type I receptor (AT1) antagonist, standard of care for high blood pressure (Kang et al, 1994; Sica D A et al, Clin Parmacokinet., 2005) was used as positive modulator control 2 of the RAS system in the AGISHA model. • 3) Tivozanib, 3 mg/kg, vascular endothelial grow factor receptor tyrosine kinase inhibitor (Campas C et al, Drugs Fut., 2009) was used as negative modulator of the RAS system during AGISHA model. […]
# The experiment was performed as described in example 5, except that the sGC stimulator 5-cyclopropyl-2-[1-(2-fluorobenzyl)-1H-pyrazolo[3,4-b]pyridin-3-yl]pyrimidin-4-amine was used for treatment. […] Losartan (30 mg/kg) was used as positive control.
# [2] = test system: rat model of hypertension; details: Hoffmann L S et al. 2015; cited from earlier work
# C57Bl/6 mice [3] = assay: AGISHA model with Vasopressin (AVP) as injury inducer (ACR in urine); assay type: in vivo; details: AVP 10 μg i.v.+10 μg s.c.; vs NaCl
# mice = assay: GFR-based model with AVP and Sinestrin-FITC; assay type: in vivo; details: AVP 35 μg (15 μg i.v. + 20 μg second bolus); vs control group
# Protocol: A similar setup (FIG. 23) was used with AVP (Sigma-Aldrich, Mo.) at a dose of 35 μg, i.e. using a first bolus with 15 μg AVP, injected i.v. in combination with Sinestrin-FITC 150 mg/kg (50 ul+50 ul) and using a second bolus of 20 μg AVP, 100 uL, injected i.v. As before GFR, was decreased by AVP compared with the control group.
# Male BL6/J mice [4] = assay: GFBI test model with Sema3a as injury inducer (half-life of Ficoll-FITC); assay type: in vivo; details: Sema3a 0.5 μg/g bodyweight i.v., vs BSA control
# Protocol: (§1) AngII induced GBM damage is a fast and stable trigger method to mimic human hypertensive glomerular disease or its complications. However, a non-hypertensive trigger was required to study the non-hypertensive kidney pathologies. […] For the example at hand, other than described by Tapia R et al, Sema3a was injected i.v. and ACR and GFB integrity were evaluated in the following setup with the following experimental groups. • 1) Male BL6/J mice were injected via tail vein with a mix of Ficoll-FITC 150 mg/kg and BSA (0.5 μg/g of BW), in a maximal volume of 100 μl. • 2) Male BL6/J mice were injected via tail vein with a mix of Ficoll-FITC 150 mg/kg and Sema3a (R&D System, USA), 0.5 μg/g of BW, in a maximal volume of 100 μl.
# (§2) The animals went under transcutaneous fluorescent measurement for 2 h, as described before. The GFB integrity test was able to detect the loss of fluorescent dye due to podocyte effacement as well as the increased ACR in the urine. […] This peptide is able to disrupt the ability of the Sema3A to induce the decay of the fluorescent dye. The sensitivity of the GFBI test was evaluated as follows and subjects were pre-treated according to the following groups: • 1. […]
# Male BL6/J mice [5] = assay: ACR after Sema3a bolus injection; assay type: in vivo; details: Sema3a 0.5 μg/g bodyweight i.v.; vs BSA control
# Protocol: as §1, §2
# [6] = Tapia R et al, KI, 2008; cited from earlier work
molecule,measurement,setting,value
"Nc1nc(-c2nn(Cc3ccccc3F)c3ncccc23)ncc1C1CC1 [5-cyclopropyl-2-[1-(2-fluorobenzyl)-1H-pyrazolo[3,4-b]pyridin-3-yl]pyrimidin-4-amine]",Reduction of ACR,C57Bl/6 mice [1]; 1 mg/kg orally prior to AngII,54%
same,"AngII induced ACR, mean±SD",C57Bl/6 mice [1]; 1 mg/kg orally prior to AngII 10 μg i.v.+10 μg s.c.,50 ± 49 µg/mg
same,"AngII induced ACR, mean±SD",C57Bl/6 mice [1]; 3 mg/kg orally prior to AngII 10 μg i.v.+10 μg s.c. (sGC stimulator experiment),42 ± 35 µg/mg
same,Reduction of ACR,C57Bl/6 mice [1]; 3 mg/kg orally prior to AngII (sGC stimulator experiment),62%
same,Effect on angiotensin II-induced cardiovascular remodeling,[2],ameliorates angiotensin II-induced cardiovascular remodeling
NC(=O)CC[C@@H]1NC(=O)[C@H](Cc2ccccc2)NC(=O)[C@H](Cc2ccc(O)cc2)NC(=O)[C@@H](N)CSSC[C@@H](C(=O)N2CCC[C@H]2C(=O)N[C@@H](CCCN=C(N)N)C(=O)NCC(N)=O)NC(=O)[C@H](CC(N)=O)NC1=O [AVP],ACR in urine collected for 4 hours after AVP bolus injection,C57Bl/6 mice [3],significant increase of ACR
same,GFR 2 hrs after AVP bolus injection,mice,decreased; also recorded: significant decrease in GFR
B1,Half-life of fluorescent molecule Ficoll-FITC 2 hrs after Sema3a bolus injection,Male BL6/J mice [4],significantly decreased half-life
same,Half-life of fluorescent molecule Ficoll-FITC 2 hrs after Sema3a bolus injection,Male BL6/J mice [4]; listed as Sema3A,significant decrease in half-life
same,ACR after Sema3a bolus injection,Male BL6/J mice [5],significantly increased ACR
same,ACR after injection of recombinant Sema3a,[6],"robust, transient ACR within 4-24 h"
